Assay results: US20230380424A1, “IMPROVEMENTS IN OR RELATING TO COPPER BASED PESTICIDES” (AGRONATURALIS LTD, priority 2020, published 2023)

What was measured:
[1] = Surface tension of spray compositions (Kruss DSA30 Drop shape analyser); format: physicochemical; conditions: composition with 15 ppm copper hydroxide
Method: (§1) The surface wetting and deposition of copper from spray compositions was determined by comparing compositions containing 15 ppm copper hydroxide with varying amounts of sodium lauryl sulfate (Agnique SLS) on its own, varying amounts of sodium dioctyl sulfosuccinate (Geropon SDS) on its own and various mixtures of the two surfactants.
(§2) The measurements were made using a Kruss DSA30 Drop shape analyser.

[2] = Contact angle of spray compositions (Kruss DSA30 Drop shape analyser); format: physicochemical; conditions: composition with 15 ppm copper hydroxide
Method: as §1
Contact angles of the same compositions were also measured.
as §2

SMILES | surface tension (actual) ([1]; 5 ppm surfactant) [mN/m] | surface tension (actual) ([1]; 20 ppm surfactant) [mN/m] | surface tension (actual) ([1]; 50 ppm surfactant) [mN/m] | surface tension (actual) ([1]; 125 ppm surfactant) [mN/m] | surface tension (actual) ([1]; 250 ppm surfactant) [mN/m] | contact angle ([2]; across all rates) [°] | contact angle trend with concentration [2]
CCCCCCCCCCCCOS(=O)(=O)[O-].[Na+] [Agnique SLS, sodium lauryl sulfate] | 70.4 | 70.5 | 67.3 | 64.7 | 64.6 | > 100 | –
CCCCCCCCOC(=O)CC(C(=O)OCCCCCCCC)S(=O)(=O)O.[Na] (stereo not drawn) [Geropon SDS, sodium dioctyl sulfosuccinate] | 70.0 | 55.5 | 49.6 | 47.6 | 43.9 | – | stepwise reduction from 5 ppm onwards
